Reference: publication PMC10641921, “Optimization of mTOR Inhibitors Using Property-Based Drug Design and Free–Wilson Analysis for Improved In Vivo Efficacy” (ACS Medicinal Chemistry Letters, 2023)
Where two headings read alike, the source gives them in different places.

Experiments:
mouse xenograft models = test: Mouse xenograft models (earlier efficacy of lead 1); format: in vivo; settings: 10 and 30 mpk
[1] = biological target: T1, FRAP1 (mTOR) recombinant protein (Homo sapiens, UniProt P42345); test: mTOR kinase inhibition assay (TR-FRET, GFP-4E-BP1); format: biochemical; settings: enzyme
T1 construct: purchased Invitrogen (Carlsbad, CA, US)
Description: (§1) FRAP1 (mTOR) recombinant protein and GFP-4E-BP1 were purchased from Invitrogen (Carlsbad, CA, US).
(§2) The kinase activity assay was conducted in 50 mM Hepes buffer containing 10 mM MgCl2, 0.01% Brij, 0.2 mM EDTA, 2 mM DTT and 1% DMSO (after compound addition) at pH 7.3.
(§3) The IC50 value for each compound was determined in the presence of compound (various concentrations, from 0 to 10 μM) and a fixed amount of ATP (50 μM, final concentration), substrate GFP-4E-BP1 (400 nM, final concentration). The enzymatic reaction was initiated by adding FRAP1 (mTOR) (2 nM, final concentration). The assay was conducted at room temperature (~22 °C). After 30 min, the enzymatic reaction was stopped using Tb-anti-p4E-BP1 (2 nM final concentration, Invitrogen) and EDTA (20 mM final concentration, Sigma) in TR-FRET dilution buffer provided by Invitrogen. All the reagents were dispensed using a Multidrop Combi reagent dispenser (ThermoFisher Scientific, Waltham, […]
The release of product was detected using a BMG PHERAstar plate reader (BMG LABTECH, Ortenberg, Germany) and the Lantha Screen module (337 nm excitation wavelength) and measuring the ratio of fluorescence 520/490 nm (emission wavelengths). Experimental data was fitted using Eq. (1): […]

[2] = tested on: pAKT-S473 in PC-3 cells (TORC2); test: Cellular p-AKT (ser473) AlphaScreen assay in PC-3 cells (TORC2 activity); format: cell-based, human; settings: for IC50: read-out: pAKT S473 Cell IC50
Description: The target product profile for 1 and the next-generation analogs described here was for a dual inhibitor against both TORC1 and TORC2.
as §1, §2, §3
The release of product was detected using a BMG PHERAstar plate reader (BMG LABTECH, Ortenberg, Germany) and the Lantha Screen module (337 nm excitation wavelength) and measuring the ratio of fluorescence 520/490 nm (emission wavelengths). Experimental data was fitted using Eq. (1):
Vi and Vo are the rates of the enzyme activity in the presence and in the absence of inhibitor; n is the Hill coefficient; I is the free inhibitor concentration; IC 50 is a measure of potency that is equivalent to a […]
Cellular p-AKT (ser473) assay in PC-3 cells
PC-3 cells (PTEN deleted, human prostate cell line) were maintained in F12K media with 10% heat-inactivated fetal bovine serum (FBS) in 37 °C, 5% CO2 incubator. This method describes the procedure […]
from Perkin Elmer (catalog# TGRAS500). On day 1, 50,000 PC-3 cells were plated in 160 µL complete […]
Plates were placed in 37 °C, 5%
CO2 incubator for 24 h. On day 2, all media was removed and replaced with 160 µL starvation media which is F12K media (no FBS) and 0.1% BSA. Plates are placed in 37 °C, 5% CO2 incubator for 16 h. On day 3, compounds were both solubilized and serially diluted in DMSO and added to a secondary plate containing starvation media. 40 µL of compound/starvation media were added to the 160 µL in cell plate and plates were placed back in the incubator for 1 h. Cells were then activated by adding 22 µL FBS (for a final concentration of 10% FBS) for 10 min in the incubator. Media was removed from the well and cells were lysed in 100 µL SureFire kit lysis buffer and then shake n for 15 min at 900 rpm. AlphaScreen […]
assay was performed according to manufacturer’s instructions. 4 µL of lysate was added to PerkinElmer 96-well Proxiplate then 5 µL of Reaction Buffer plus Activation Buffer. Plates were shaken for 2 h at room temperature. 2 µL of Donor Beads in Dilution Buffer were added to the plate and the plate was shaken for 2 h at room temperature. The plate was read using BMG Labtech PHERAstar using AlphaScreen settings. Each analog was run in duplicate wells and a single IC50 value was calculated in […]

PI3Kδ = PI3Kδ selectivity; format: biochemical
[3] = biological target: human ether-a-go-go (hERG) (Homo sapiens, UniProt Q12809); test: hERG patch clamp; format: cell-based
[4] = biological target: T2, cyclin-dependent kinase 9 (CDK9) (Homo sapiens, UniProt P50750); test: Kinase panel (Invitrogen) at 1 μM, CDK9; format: biochemical
T2 construct: purchased Invitrogen

[5] = tested on: interleukin-1 receptor-associated kinase 4 (IRAK1); test: Kinase panel (Invitrogen) at 1 μM, IRAK1; format: biochemical
[6] = Ames test with and without S9; format: cell-based; settings: with and without S9 activation
panel of 298 kinases = test: Panel of 298 kinases (Invitrogen); format: biochemical; settings: 298 kinases tested at 1 μM
PI3Kγ = PI3Kγ selectivity; format: biochemical
DNA-PK = biological target: T3, DNA-PK (Homo sapiens, UniProt P78527); test: DNA-PK inhibition (Invitrogen); format: biochemical
T3 construct: purchased Invitrogen

PI3Kβ = PI3Kβ selectivity; format: biochemical
[7] = Homo sapiens, PC-3, PC-3 cell line
[8] = Homo sapiens, p-AKT S473, PC-3 cells, mean of N runs, read-out: Cell pEC50 (converted)

T1 sequence (P42345 1360-2549 limits assumed): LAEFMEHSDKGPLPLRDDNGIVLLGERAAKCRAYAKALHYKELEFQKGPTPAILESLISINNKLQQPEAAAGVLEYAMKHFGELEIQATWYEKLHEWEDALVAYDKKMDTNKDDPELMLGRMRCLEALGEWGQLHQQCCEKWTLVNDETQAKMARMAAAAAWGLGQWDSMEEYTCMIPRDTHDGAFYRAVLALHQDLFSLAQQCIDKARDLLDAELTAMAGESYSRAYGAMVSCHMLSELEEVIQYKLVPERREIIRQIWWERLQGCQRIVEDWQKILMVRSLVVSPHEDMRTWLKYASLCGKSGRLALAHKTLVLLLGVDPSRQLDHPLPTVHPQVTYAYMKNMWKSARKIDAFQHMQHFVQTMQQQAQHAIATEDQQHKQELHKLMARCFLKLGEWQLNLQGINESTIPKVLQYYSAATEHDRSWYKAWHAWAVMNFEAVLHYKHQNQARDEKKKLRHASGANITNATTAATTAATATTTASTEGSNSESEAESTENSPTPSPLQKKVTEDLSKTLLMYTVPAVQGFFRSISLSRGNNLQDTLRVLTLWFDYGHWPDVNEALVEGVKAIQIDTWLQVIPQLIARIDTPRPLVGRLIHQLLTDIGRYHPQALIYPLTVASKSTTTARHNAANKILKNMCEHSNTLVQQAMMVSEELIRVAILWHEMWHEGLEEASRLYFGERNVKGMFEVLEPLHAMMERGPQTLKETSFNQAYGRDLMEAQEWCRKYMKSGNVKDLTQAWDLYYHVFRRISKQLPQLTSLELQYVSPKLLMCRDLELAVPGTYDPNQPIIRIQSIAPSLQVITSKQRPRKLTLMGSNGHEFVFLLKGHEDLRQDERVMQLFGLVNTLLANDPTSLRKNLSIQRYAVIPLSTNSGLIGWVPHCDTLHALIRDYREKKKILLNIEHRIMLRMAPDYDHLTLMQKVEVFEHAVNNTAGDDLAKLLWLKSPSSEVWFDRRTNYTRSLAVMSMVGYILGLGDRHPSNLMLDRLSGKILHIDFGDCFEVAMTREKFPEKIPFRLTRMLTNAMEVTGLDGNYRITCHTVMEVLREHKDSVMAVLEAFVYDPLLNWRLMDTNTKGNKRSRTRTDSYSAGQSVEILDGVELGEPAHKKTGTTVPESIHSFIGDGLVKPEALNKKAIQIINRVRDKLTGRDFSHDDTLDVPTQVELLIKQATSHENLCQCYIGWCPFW
T2 sequence (P50750 whole entry): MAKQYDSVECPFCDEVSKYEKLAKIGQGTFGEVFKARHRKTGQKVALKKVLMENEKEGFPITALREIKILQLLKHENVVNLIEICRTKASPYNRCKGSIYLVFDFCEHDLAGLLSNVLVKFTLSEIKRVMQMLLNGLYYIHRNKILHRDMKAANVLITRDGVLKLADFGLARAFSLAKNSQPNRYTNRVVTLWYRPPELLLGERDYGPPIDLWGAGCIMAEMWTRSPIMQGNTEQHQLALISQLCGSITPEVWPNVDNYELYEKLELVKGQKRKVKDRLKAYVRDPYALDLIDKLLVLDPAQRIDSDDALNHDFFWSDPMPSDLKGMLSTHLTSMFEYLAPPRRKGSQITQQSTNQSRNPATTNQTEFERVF
T2 sequence (O60563 whole entry partner): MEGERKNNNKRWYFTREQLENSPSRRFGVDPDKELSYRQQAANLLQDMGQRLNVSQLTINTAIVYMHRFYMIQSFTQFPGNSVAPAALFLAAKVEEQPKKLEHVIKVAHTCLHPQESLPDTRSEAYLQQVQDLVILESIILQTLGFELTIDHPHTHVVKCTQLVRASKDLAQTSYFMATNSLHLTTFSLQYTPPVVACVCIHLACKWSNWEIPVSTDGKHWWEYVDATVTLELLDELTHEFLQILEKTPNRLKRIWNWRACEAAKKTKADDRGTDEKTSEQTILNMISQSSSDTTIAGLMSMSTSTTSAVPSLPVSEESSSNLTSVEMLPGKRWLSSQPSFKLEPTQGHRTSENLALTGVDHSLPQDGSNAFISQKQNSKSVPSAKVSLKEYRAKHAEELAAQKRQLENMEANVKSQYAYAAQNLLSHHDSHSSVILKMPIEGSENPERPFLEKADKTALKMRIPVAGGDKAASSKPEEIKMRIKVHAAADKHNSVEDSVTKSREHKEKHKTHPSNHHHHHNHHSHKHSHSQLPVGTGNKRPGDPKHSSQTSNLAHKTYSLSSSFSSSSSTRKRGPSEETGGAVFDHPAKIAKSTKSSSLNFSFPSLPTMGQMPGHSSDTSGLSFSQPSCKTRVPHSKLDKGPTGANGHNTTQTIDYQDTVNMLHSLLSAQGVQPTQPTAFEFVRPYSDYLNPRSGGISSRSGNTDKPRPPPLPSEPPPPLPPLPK
Sequence of human ether-a-go-go (hERG) (Q12809 whole entry): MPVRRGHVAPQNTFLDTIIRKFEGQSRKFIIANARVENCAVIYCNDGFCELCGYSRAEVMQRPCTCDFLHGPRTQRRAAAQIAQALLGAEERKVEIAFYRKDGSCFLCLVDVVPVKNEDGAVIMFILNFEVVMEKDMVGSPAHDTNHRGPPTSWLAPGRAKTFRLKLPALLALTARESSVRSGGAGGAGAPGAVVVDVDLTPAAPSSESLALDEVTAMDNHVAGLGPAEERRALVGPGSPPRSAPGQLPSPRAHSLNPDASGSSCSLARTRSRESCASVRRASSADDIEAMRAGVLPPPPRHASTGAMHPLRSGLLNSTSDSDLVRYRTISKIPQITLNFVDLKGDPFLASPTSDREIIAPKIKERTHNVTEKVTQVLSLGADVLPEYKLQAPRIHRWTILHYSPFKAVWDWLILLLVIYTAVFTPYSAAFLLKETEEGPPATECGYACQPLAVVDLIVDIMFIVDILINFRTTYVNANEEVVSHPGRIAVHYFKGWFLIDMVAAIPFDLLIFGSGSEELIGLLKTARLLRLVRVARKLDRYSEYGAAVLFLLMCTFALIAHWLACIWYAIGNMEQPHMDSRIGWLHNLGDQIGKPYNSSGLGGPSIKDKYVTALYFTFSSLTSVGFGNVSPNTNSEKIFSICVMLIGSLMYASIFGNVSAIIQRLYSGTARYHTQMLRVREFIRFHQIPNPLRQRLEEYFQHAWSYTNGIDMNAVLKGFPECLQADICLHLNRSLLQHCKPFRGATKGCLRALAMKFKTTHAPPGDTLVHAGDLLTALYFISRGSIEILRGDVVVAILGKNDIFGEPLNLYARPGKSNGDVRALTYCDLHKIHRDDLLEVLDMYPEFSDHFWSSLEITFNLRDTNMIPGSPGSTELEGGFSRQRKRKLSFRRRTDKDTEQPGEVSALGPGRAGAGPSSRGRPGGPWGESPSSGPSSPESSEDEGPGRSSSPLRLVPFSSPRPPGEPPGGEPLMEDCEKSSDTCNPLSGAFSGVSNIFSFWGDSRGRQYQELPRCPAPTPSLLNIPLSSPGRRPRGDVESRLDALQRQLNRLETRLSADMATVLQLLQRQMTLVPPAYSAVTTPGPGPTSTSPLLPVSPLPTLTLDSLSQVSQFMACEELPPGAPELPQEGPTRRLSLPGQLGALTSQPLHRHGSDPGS

| Structure (SMILES) | In vivo efficacy (mouse xenograft models) | IC50 [1] | IC50 [2, 7] | EC50 ([2]; Homo sapiens, PC-3, Figure 1 profile, read-out: cell EC50) | EC50 [2, 8] | Selectivity against PI3Kδ (PI3Kδ) | IC50 [3] | inhibition at 1 µM [4] | IRAK1 inhibition [5] | Ames test [6] | Kinase panel selectivity (panel of 298 kinases) | Selectivity against PI3Kγ (PI3Kγ) | IC50 ([2]; PC-3 cell line) | inhibition at 1 µM (DNA-PK) | Selectivity against PI3Kβ (PI3Kβ) |
| --- | --- | --- | --- | --- | --- | --- | --- | --- | --- | --- | --- | --- | --- | --- | --- |
| CC(F)(F)CN1C(=O)[C@]2(C)COCCN2c2nc(-c3ccc(NC(=O)NC4CC4)cc3)ncc21 [compound 1] | significant in vivo efficacy | 12 nM | 70 nM | 70 nM | 70.8 nM |  |  |  |  |  |  |  |  |  |  |
| C[C@@]12COCCN1c1nc(-c3cccc4[nH]ccc34)ncc1N([C@H]1CC[C@H](O)CC1)C2=O [14c] |  |  | 10 nM |  | 12.6 nM | 6 × | > 40000 nM | 34% | 22% | negative | only two had inhibition >20% | 180 × | 13 nM | 13% | 180 × |
